These results are taken from publication PMC8453635, “Piperidine Azasugars Bearing Lipophilic Chains: Stereoselective Synthesis and Biological Activity as Inhibitors of Glucocerebrosidase (GCase)” (The Journal of Organic Chemistry, 2021).

Structures are written as SMILES.

The term inhibition denotes the relative decrease from the control value, in per cent.

The target in the assay is T1, β-mannosidase (Homo sapiens, UniProt O00462).
T1 construct: from leukocytes isolated from healthy donors (controls); from tissue; host or cells: leukocytes from healthy donors, sonicated homogenate
T1 sequence (O00462 18-879): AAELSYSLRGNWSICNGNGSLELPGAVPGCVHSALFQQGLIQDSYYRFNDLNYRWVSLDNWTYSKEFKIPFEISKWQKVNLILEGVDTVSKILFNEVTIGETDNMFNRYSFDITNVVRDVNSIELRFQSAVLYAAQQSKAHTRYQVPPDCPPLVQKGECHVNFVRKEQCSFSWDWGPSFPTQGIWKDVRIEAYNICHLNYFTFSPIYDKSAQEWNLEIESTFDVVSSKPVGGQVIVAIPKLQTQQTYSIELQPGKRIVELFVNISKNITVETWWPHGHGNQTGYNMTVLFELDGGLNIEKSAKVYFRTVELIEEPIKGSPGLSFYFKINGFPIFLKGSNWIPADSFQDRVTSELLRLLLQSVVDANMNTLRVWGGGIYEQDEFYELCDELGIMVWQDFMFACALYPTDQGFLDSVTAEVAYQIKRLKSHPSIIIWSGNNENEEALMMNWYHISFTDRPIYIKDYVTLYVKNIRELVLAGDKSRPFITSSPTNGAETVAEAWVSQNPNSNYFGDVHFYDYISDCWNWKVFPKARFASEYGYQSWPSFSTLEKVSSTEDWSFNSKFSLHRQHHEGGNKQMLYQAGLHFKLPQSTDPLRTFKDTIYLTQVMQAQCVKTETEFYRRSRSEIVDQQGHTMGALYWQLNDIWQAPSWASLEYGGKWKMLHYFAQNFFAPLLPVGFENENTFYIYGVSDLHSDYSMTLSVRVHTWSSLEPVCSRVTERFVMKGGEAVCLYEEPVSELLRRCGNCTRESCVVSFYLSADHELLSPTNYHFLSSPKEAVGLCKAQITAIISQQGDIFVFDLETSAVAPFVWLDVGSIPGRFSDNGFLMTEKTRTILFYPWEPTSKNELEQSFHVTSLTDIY
In words: Human lysosomal glycosidase selectivity screening (leukocyte homogenate). In kind it is biochemical. The note with it: 1 mM, read-out: percentage of inhibition, β-Man. The protocol: In order to avoid undesired inhibitory side effects of a potential new drug, it has to be selective for a given target. The selectivity of the newly synthesized compounds 14, 15, and 33·HCl toward GCase was then investigated, evaluating their inhibition at 1 mM concentration toward six other lysosomal glycosidases (namely, α-and β-mannosidases, α- and β-galactosidases, α-fucosidase, and α-glucosidase) in cell homogenates (leucocytes or lymphocytes) isolated from healthy donors. […] Indeed, only moderate inhibitory activity (ca. 50%) was found toward human β-galactosidase for both piperidines 14 and 15, while negligible inhibitory activity was detected in all other cases.
The effect of 1 mM concentration of 14, 15, and 33·HCl was assayed toward six lysosomal glycosidases other than GCase, namely, α-mannosidase, β-mannosidase, α-galactosidase, β-galactosidase, α-fucosidase from leukocytes isolated from healthy donors (controls) and α-glucosidase from lymphocytes isolated from healthy donors’ flesh blood (controls). Isolated leukocytes or lymphocytes were disrupted by sonication, and a micro BCA protein assay kit (Sigma-Aldrich) was used to determine the total protein amount for the enzymatic assay, according to the manufacturer’s instructions (for more details, see the Supporting Information section).
Selectivity of compounds 14, 15 and 33.HCl towards lysosomal enzymes.
The effect of 1 mM concentration of 14, 15 and 33.HCl was assayed towards six lysosomal glycosidases other than GCase, namely: α-mannosidase, β-mannosidase, α-galactosidase, β-galactosidase, α-fucosidase from leukocytes isolated from healthy donors (controls) and α-glucosidase from lymphocytes isolated from healthy donors’ flesh blood (controls). Isolated leukocytes or lymphocytes were disrupted by sonication, and a micro BCA protein assay kit (Sigma–Aldrich) was used to determine the total protein amount for the enzymatic assay, according to the manufacturer instructions. […]
Molecular Devices). Inhibition is given with respect to the control (without azasugar). Data are mean SD (n=3). […]
Inhibition is given with respect to the control (without azasugar). Data are mean SD (n=3). […]
(1 picture or pasted object on this page, not shown here) […]
α-Fucosidase activity was measured in a flat -bottomed 96 -well plate. Azasugar solution (3 μL), 4.29 μg/μL leukocytes homogenate 1:3 (7 μL), and substrate 4 -methylumbe lliferyl α-L-fucopyranoside (1.51 mM, 20 μL, Sigma –Aldrich) in Na phosphate/citrate buffer (0.2:0.1, M/M, pH 5.5) were incubated at 37 °C for 1 h. […]
Data are mean SD (n=3). S74 […]
α-Glucosidase activity was measured in a flat –bottomed 96 well plate. Azasugar solution (3 µL), 4.29 µg/µL lymphocytes homogenate (7µL) and 20 µL of substrate solution of 4 -methylumbelliferyl -α-D-glucopyranoside (Sigma -Aldrich) in Na a cetate buffer (0.2 M, pH 4.0) were incubated for 1 h at 37 °C. The reaction was stopped by the addition of a solution of sodium carbonate (200 µL; 0.5M, pH 10.7) containing Triton X -100 (0.0025 %), and the fluorescence of 4 -methylumbelliferone released by α-glucosidase activity was measured in […]
respect to the control (without azasugar). Data are means of 3 values. […]
Figure S 48. Activity of a panel of 6 hu man lysosomal glycosidases in the presence of compounds 14, 15 and 33.HCl (1 mM ). The corresponding calculated percentage of inhibition is indicated above each bar.
Regarding `CCCCCCCC[C@@H]1[C@@H](O)[C@H](O)[C@H](O)CN1CCCCCCCC` [compound 15, (2R,3R,4R,5R)-1,2-Dioctylpiperidine-3,4,5-triol], the inhibition at 1000 µM came to 1%. For `CCCCCCCC[C@@H]1[C@@H](O)[C@H](O)[C@H](O)CN1C(CCCCCCC)CCCCCCC.Cl` [compound 33·HCl, (2R,3R,4R,5R)-2-Octyl-1-(pentadecan-8-yl)-piperidine-3,4,5-triol Hydrochloride], the inhibition at 1000 µM stood at 2%. The result for `CCCCCCCC[C@H]1[C@@H](O)[C@H](O)[C@H](O)CN1CCCCCCCC` [compound 14, (2S,3R,4R,5R)-1,2-Dioctylpiperidine-3,4,5-triol] reads 0%.
